Data set [1] has as its system Rat2 fibroblasts stably transformed with v-Src/Hu c-Src fusion gene. Kind of data set: Anchorage independent Src-transformed fibroblast proliferation assay. It counts as cell-based, rat. The settings on record: for inhibition at 100 µM / inhibition at 10 µM: Rat2, Table 1; for inhibition at 100 µM: read-out: Src cells % inh at 100 μM; for inhibition at 10 µM: read-out: Src cells % inh at 10 μM. As for the experimental part:
Anchorage Independent Src-Transformed Fibroblast Proliferation Assay Rat2 fibroblasts stably transformed with a plasmid containing a CMV promotor controlled v-Src/Hu c-Src fusion gene in which the catalytic domain of human c-Src was inserted in place of the v-Src catalytic domain in the v-Src gene are used for the measurement of src dependent suspension growth. […] Multiple entries for a given compound indicate that it was tested multiple times.

[2] abbreviates: Rattus norvegicus, Rat2, 120 h, Table 1, suspension growth, MTS readout Day 5, read-out: Src cells IC50.
Where [3] appears, read: Table 1, suspension growth, MTS readout Day 5, read-out: Src cells IC50.

Experimental findings from patent US7276519B2, “Thieno[3,2-b]pyridine-6-carbonitriles and thieno[2,3-b]pyridine-5-carbonitriles as protein kinase inhibitors” (Wyeth, priority 2002, dated 2007) are described below.

Read-outs that look alike come from different tables or passages of the source.

As a reminder, the IC50 is the concentration at which inhibition is half-maximal. Usually melting point stands for the temperature, or range, at which the solid turns liquid.

The compound `COc1cc(Nc2c(C#N)cnc3cc(-c4ccc(C(N)=O)cc4)sc23)c(Cl)cc1Cl` [Example 20, 4-{6-Cyano-7-[(2,4-dichloro-5-methoxyphenyl)amino]thieno[3,2-b]pyridine-2-yl}benzamide] displayed a melting point greater than 300 °C. Also, in data set [1] (setting [2]), the IC50 stood at 1 µM.
In the same order, the values of `COc1ccc(C#Cc2cc3ncc(C#N)c(Nc4cc(OC)c(Cl)cc4Cl)c3s2)cc1` [Example 21, 7-[(2,4-Dichloro-5-methoxyphenyl)amino]-2-[(4-methoxyphenyl)ethynyl]thieno[3,2-b]pyridine-6-carbonitrile] are 249 to 250 °C and 32 µM.
As to `COc1cc(Nc2c(C#N)cnc3sc(CCCCO)cc23)cc(OC)c1OC` [Example 30, 2-(4-Hydroxybutyl)-4-[(3,4,5-trimethoxyphenyl)amino]-thieno[2,3-b]pyridine-5-carbonitrile], the melting point is 125 to 127 °C. Moreover, in data set [1] (setting [2]), the half-inhibitory concentration (IC50) is 23 µM. Besides, the IC50 in data set [1] (setting [3]) turned out to be 25 µM.
Consider `COc1cc(Nc2c(C#N)cnc3cc(-c4csc(C5OCCO5)c4)sc23)c(Cl)cc1Cl` [Example 36, 7-[(2,4-Dichloro-5-methoxyphenyl)amino]-2-[5-(1,3-dioxolan-2-yl)thien-3-yl]thieno[3,2-b]pyridine-6-carbonitrile], for which the melting point is 219 to 221 °C. Also, the IC50 in data set [1] (setting [2]) was determined as 1.6 µM.
For `C#Cc1cc2ncc(C#N)c(Nc3cc(OC)c(Cl)cc3Cl)c2s1` [Example 33, 7-[(2,4-Dichloro-5-methoxyphenyl)amino]-2-ethynylthieno[3,2-b]pyridine-6-carbonitrile], in that order: 198 to 200 °C and 0.88 µM.
As for `N#Cc1cnc2cc(-c3ccc(CN4CCOCC4)cc3)sc2c1Nc1ccc(Oc2ccccc2)cc1` [Example 45, 2-[4-(Morpholin-4-ylmethyl)phenyl]-7-[(4-phenoxyphenyl)amino]thieno[3,2-b]pyridine-6-carbonitrile], the melting point was in the range of 254 to 256 °C. For the same compound, the inhibition at 100 µM in data set [1] (Rattus norvegicus, at 100 μM) stood at 2%.
With `COc1cc(Nc2c(C#N)cnc3sc(CCCCN4CCOCC4)cc23)cc(OC)c1OC` [Example 31, 2-[4-(4-Morpholinyl)butyl]-4-[(3,4,5-trimethoxyphenyl)amino]-thieno[2,3-b]pyridine-5-carbonitrile], the IC50 in data set [1] (setting [2]) is 35 µM.
The compound `COc1cc(Nc2c(C#N)cnc3cc(I)sc23)c(Cl)cc1Cl` [Example 4, 7-[(2,4-Dichloro-5-methoxyphenyl)amino]-2-iodothieno[3,2-b]pyridine-6-carbonitrile] showed a melting point of 233 to 234 °C. Moreover, the IC50 in data set [1] (setting [2]) worked out at 3.1 µM.
For `COc1cc(Nc2c(C#N)cnc3cc(C#CCN(C)C)sc23)c(Cl)cc1Cl` [Example 23, 7-[(2,4-Dichloro-5-methoxyphenyl)amino]-2-[3-(dimethylamino)prop-1-ynyl]thieno[3,2-b]pyridine-6-carbonitrile], in that order: 164 to 166 °C and 5.6 µM.
`COc1cc(Nc2c(C#N)cnc3sc(C)cc23)c(Cl)cc1Cl` [Example 8, 4-[(2,4-Dichloro-5-methoxyphenyl)amino]-2-methylthieno[2,3-b]pyridine-5-carbonitrile]: the melting point was in the range of 179 to 181 °C. In addition, in data set [1] (Rattus norvegicus), the inhibition at 10 µM came to 33%.
Compound `N#Cc1cnc2ccsc2c1Sc1ccc(Cl)cc1Cl` [Example 12, 7-[(2,4-Dichlorophenyl)thio]thieno[3,2-b]pyridine-6-carbonitrile] returned a melting point of 126 to 128 °C. Moreover, the inhibition at 10 µM in data set [1] (Rattus norvegicus) stood at 23%.
In the case of `COc1cc(Nc2c(C#N)cnc3cc(-c4ccsc4C=O)sc23)c(Cl)cc1Cl` [Example 78, 7-[(2,4-dichloro-5-methoxyphenyl)amino]-2-(2-formylthien-3-yl)thieno[3,2-b]pyridine-6-carbonitrile], the melting point fell in the range of 128 to 130 °C.
`COc1cc(Nc2c(C#N)cnc3c(Br)csc23)c(Cl)cc1Cl` [Example 139, 3-Bromo-7-[(2,4-dichloro-5-methoxyphenyl)amino]thieno[3,2-b]pyridine-6-carbonitrile] showed a melting point of 265 to 266 °C.
With `COc1cc(Nc2c(C#N)cnc3cc(-c4ccc(C=O)cc4)sc23)cc(OC)c1OC` [Example 55, 2-(4-Formylphenyl)-7-[(3,4,5-trimethoxyphenyl)amino]thieno[3,2-b]pyridine-6-carbonitrile], the melting point was in the range of 268 to 270 °C. Moreover, in data set [1] (Rattus norvegicus, at 100 μM), the inhibition at 100 µM stood at 97%.
`COc1cc(Nc2c(C#N)cnc3cc(-c4ccc(CN5CCN(Cc6ccccn6)CC5)cc4)sc23)c(Cl)cc1Cl` [Example 124, 7-[(2,4-dichloro-5-methoxyphenyl)amino]-2-(4-{[4-(pyridin-2-ylmethyl)piperazin-1-yl]methyl}phenyl)thieno[3,2-b]pyridine-6-carbonitrile] returned a melting point of 105 to 107 °C. Moreover, the IC50 in data set [1] (Rattus norvegicus, Rat2, Table 3, read-out: Src Cells IC50 μM or % inhib at 10 μM (IC50 values)) turned out to be 0.914 µM. In addition, in data set [1] (Table 3, read-out: Src Cells IC50 μM or % inhib at 10 μM (IC50 values)), the IC50 was determined as 0.576 µM.
As to `COc1cc(Nc2c(C#N)cnc3cc(C#CCN4CCN(C)CC4)sc23)cc(OC)c1OC` [Example 57, 2-[3-(4-Methylpiperazin-1-yl)prop-1-ynyl]-7-[(3,4,5-trimethoxyphenyl)amino]thieno[3,2-b]pyridine-6-carbonitrile], the melting point was 180 to 182 °C. Also, the inhibition at 100 µM in data set [1] (Rattus norvegicus, at 100 μM) worked out at 70%.
For the compound `N#Cc1cnc2cc(I)sc2c1Nc1ccc(Cl)cc1Cl` [Example 102, 7-[(2,4-dichlorophenyl)amino]-2-iodothieno[3,2-b]pyridine-6-carbonitrile], the melting point lay in the range of 230 to 233 °C.
Consider `COc1cc(Nc2c(C#N)cnc3cc(/C=C/C(=O)OC(C)(C)C)sc23)c(Cl)cc1Cl` [Example 50, tert-Butyl (2E)-3-{6-cyano-7-[(2,4-dichloro-5-methoxyphenyl)amino]thieno[3,2-b]pyridin-2-yl}prop-2-enoate], for which the melting point was 224 °C (dec.). For the same compound, the IC50 in data set [1] (setting [2]) worked out at 7.4 µM.
The compound `CCOc1cc(Nc2c(C#N)cnc3cc(I)sc23)c(Cl)cc1Cl` [Example 110, 7-[(2,4-dichloro-5-ethoxyphenyl)amino]-2-iodothieno[3,2-b]pyridine-6-carbonitrile] gave a melting point of 232 to 233 °C.
For the compound `COc1cc(Nc2c(C#N)cnc3cc(/C=C/C(=O)N4CCN(C)CC4)sc23)c(Cl)cc1Cl` [Example 56, 7-[(2,4-Dichloro-5-methoxyphenyl)amino]-2-[(1E)-3-(4-methylpiperazin-1-yl)-3-oxoprop-1-enyl]thieno[3,2-b]pyridine-6-carbonitrile], the melting point lay within 218 to 220 °C. In data set [1] (setting [2]), the IC50 was found to be 3.93 µM. In data set [1] (setting [3]), the IC50 is 2.2 µM.
In the case of `COc1cc(Nc2c(C#N)cnc3sc(-c4ccc(CN5CCOCC5)cc4)cc23)c(Cl)cc1Cl`, the melting point lay in the range of 106 to 108 °C.
Compound `COc1cc(Nc2c(C#N)cnc3cc(-c4ccc(CN5CCN(C)CC5)cc4)sc23)c(Cl)cc1Cl` [Example 16, 7-[(2,4-Dichloro-5-methoxyphenyl)amino]-2-[4-(4-methylpiperazin-1-ylmethyl)phenyl]thieno[3,2-b]pyridine-6-carbonitrile] came in with a melting point of 226 to 228 °C.
Same read-out and setting: for `Cn1ccnc1Sc1ccc(Nc2c(C#N)cnc3cc(I)sc23)cc1Cl` [Example 82, 7-({3-chloro-4-[(1-methyl-1H-imidazol-2-yl)thio]phenyl}amino)-2-iodothieno[3,2-b]pyridine-6-carbonitrile] the value was 290 to 291 °C; for `N#Cc1cnc2cc(-c3ccc(C=O)cc3)sc2c1Nc1ccc(Cl)cc1Cl` [Example 115, 7-[(2,4-dichlorophenyl)amino]-2-(4-formylphenyl)thieno[3,2-b]pyridine-6-carbonitrile], 170 to 171 °C; for `Cn1ccnc1Sc1ccc(Nc2c(C#N)cnc3cc(-c4ccc(C=O)cc4)sc23)cc1Cl` [Example 97, 7-({3-chloro-4-[(1-methyl-1H-imidazol-2-yl)thio]phenyl}amino)-2-(4-formylphenyl)thieno[3,2-b]pyridine-6-carbonitrile], 279 to 281 °C.
As to `COc1cc(Nc2c(C#N)cnc3cc(/C=C/C(=O)O)sc23)c(Cl)cc1Cl` [Example 53, (2E)-3-(6-Cyano-7-[(2,4-dichloro-5-methoxyphenyl)amino]thieno[3,2-b]pyridin-2-yl)prop-2-enoate], the “Src cells % inh at 100 μM” value in data set [1] (Table 1, at 100 μM) is listed as 45%.
For `COc1cc(Nc2c(C#N)cnc3cc(-c4coc(C=O)c4)sc23)c(Cl)cc1Cl` [Example 138, 7-[(2,4-dichloro-5-methoxyphenyl)amino]-2-(5-formyl-3-furyl)thieno[3,2-b]pyridine-6-carbonitrile], the melting point was 223 to 224 °C.
The same measure, in the same setting: for `COc1cc(N(C(C)=O)c2c(C#N)cnc3ccsc23)c(Cl)cc1Cl` [Example 63, N-(6-Cyanothieno[3,2-b]pyridin-7-yl)-N-(2,4-dichloro-5-methoxyphenyl)acetamide] the value was 202 to 204 °C.
Same read-out and setting: for `CN(C)c1ccc(-c2cc3ncc(C#N)c(Nc4ccc(Cl)cc4Cl)c3s2)cc1` [Example 126, 7-[(2,4-dichlorophenyl)amino]-2-[4-(dimethylamino)phenyl]thieno[3,2-b]pyridine-6-carbonitrile] the value was 239 to 241 °C; for `COc1cc(Nc2c(C#N)cnc3cc(C#CCN4CCN(C)CC4)sc23)c(Cl)cc1Cl`, 172 to 173 °C.
With `COC(=O)CCCc1cc2c(Nc3cc(OC)c(OC)c(OC)c3)c(C#N)cnc2s1` [Example 29, 4-[5-Cyano-4-(3,4,5-trimethoxyphenylamino)-thieno[2,3-b]pyridin-2-yl]-butyric acid methyl ester], the melting point lay within 101 to 103 °C.
